pIC50: −log10 of the molar value.
Assay: Inhibition of [3H]- pentazocine binding against guinea pig brain Sigma opioid receptor type 1

`O=C1COc2cc(CN3CCN(c4ccc(Cl)cc4)CC3)ccc2N1` [7-[4-(4-Chloro-phenyl)-piperazin-1-ylmethyl]-4H-benzo[1,4]oxazin-3-one] gave a pIC50 of 6.55.

— BindingDB's records for doi:10.1021/jm990277d (Warner-Lambert, 2000)
